{"source": "paper PMC2650103", "about": "(Journal of medicinal chemistry, 2008)", "origin": "cited, not measured here", "test_system": "cowpox, vaccinia or ectromelia virus", "details": "mouse, in vivo, po; cited from earlier work"}
{"smiles": "O=C(NN1C(=O)C2C3C=CC(C4CC34)C2C1=O)c1ccc(C(F)(F)F)cc1", "note": "(stereo not shown) [Compound 30, 4-trifluoromethyl-N-(3,3a,4,4a,5,5a,6,6a-octahydro-1,3-dioxo-4,6-ethenocycloprop[f]isoindol-2(1H)-yl)-benzamide]", "values": [{"measurement": "Protection against viral spread in mice", "value": "effective in protecting against viral spread"}]}
